Drawing on patent US20160045505A1, “COMPOUNDS AND COMPOSITIONS FOR THE TREATMENT OF PARASITIC DISEASES” (NOVARTIS AG, priority 2013, published 2016), this text covers EC50 for 25 compounds.

What is called EC50 is the concentration at which the effect is half-maximal.

Assay [1] relates to Leishmania donovani axenic amastigote parasites. Kind of assay: Leishmania donovani axenic amastigote proliferation assay (Cell TiterGlo luminescence, 2 day incubation). Format: cell-based. The following applies: read-out: L. donovani amastigotes EC50. In general terms: Cellular ATP, detected with luciferase, serves as a proxy for viable cell number.
Assay [2] deals with Trypanosoma cruzi amastigotes (Tulahuen strain expressing Lac-Z) cultured in 3T3 fibroblast cells. In words: microbe, parasite or virus in culture. Format: cell-based. The following applies: T. cruzi amastigotes in 3T3 fibroblast cells, read-out: T cruzi EC50.
For assay [3], the system named is Trypanosoma brucei Lister 427 strain, bloodstream form. Kind of assay: Assay for proliferation of kinetoplastid parasite Trypanosoma brucei (Cell Titer Glo, 48 hours). Format: cell-based. The following applies: T. brucei Lister 427 bloodstream form, read-out: T. brucei EC50. In short, it runs like this: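 Bloodstream-form T. brucei Lister 427 in HMI-9 medium was exposed to compound (DMSO vehicle) for 48 hours at 37° C, 5% CO2. Parasite growth was read as ATP by CellTiter-Glo luminescence, with EC50 calculated from percent inhibition.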

The subject of assay [4] is L. donovani HU3 strain in mouse peritoneal macrophages. In words: Assay for proliferation of Leishmania parasites in infected mouse peritoneal macrophages (SybrGreen staining, high-content imaging, 5 days). The format is cell-based, Leishmania donovani. To be noted: L. donovani in mouse peritoneal macrophages, read-out: L. donovani Macrophage EC50.
Setting [5] is: Leishmania donovani, axenic amastigotes, inhibition of proliferation.
The mark [6] stands for this setting: Trypanosoma cruzi, TULAHUEN, Fibroblast, inhibition of proliferation.
Setting [7] is: Trypanosoma brucei, inhibition of proliferation.
Where [8] appears, read: Leishmania donovani, Peritoneal macrophage, inhibition of proliferation.
[9] abbreviates: Leishmania donovani, L. donovani axenic amastigotes.
Setting [10] is: Trypanosoma cruzi, TULAHUEN, Fibroblast.
Where [11] appears, read: Leishmania donovani, Peritoneal macrophage.

Like-named read-outs stand apart in the source and are kept apart here.

Regarding `CC(C)OC(=O)Nc1cnc2nc(-c3cc(NC(=O)NN)ccc3Cl)cn2c1` [Compound 257], the EC50 in assay [1] (setting [5]) is 9220 nM; in assay [2] (setting [6]), 4050 nM; in assay [3] (setting [7]), 4650 nM; in assay [4] (setting [8]), over 33800 nM.

On to `O=C1CCC(C(=O)Nc2ccc(F)c(-c3cn4cc(C5CC5)cnc4n3)c2)C1` (stereo not shown) [Compound 599], for which the EC50 was 2690 nM in assay [1] (setting [9]), 3930 nM in assay [2] (setting [10]), 3300 nM in assay [3] (Trypanosoma brucei) and 639 nM in assay [4] (setting [11]).

Regarding `Cc1nc(C)c(C(=O)Nc2ccc(F)c(-c3cn4cc(-c5ccc(S(C)(=O)=O)cc5F)cnc4n3)c2)o1` [Compound 362], the EC50 in assay [1] (setting [5]) is 403 nM; in assay [2] (setting [6]) it was over 20000 nM; in assay [3] (setting [7]), 345 nM; in assay [4] (setting [8]) it was over 34400 nM.

As for `O=C(Nc1ccc(F)c(-c2cn3cc(C(F)(F)F)cnc3n2)c1)N1CCC1` [Compound 299], the concentration for a half-maximal effect (EC50) in assay [1] (setting [5]) came to 92 nM; in assay [2] (setting [6]) it was 45 nM; in assay [3] (setting [7]), 34 nM; in assay [4] (setting [8]), 178 nM.

For `Cc1nc(C)c(C(=O)Nc2cccc(-c3cn4cc(-c5ccccc5)cnc4n3)c2)o1` [Compound 336], the EC50 in assay [1] (setting [5]) amounted to 74 nM; in assay [2] (setting [6]) it was 45 nM; in assay [3] (setting [7]), 86 nM; in assay [4] (setting [8]), 168 nM.

For `O=C(Nc1cnc2nc(-c3cc(NC(=O)N4CCCC4)ccc3F)cn2c1)[C@@H]1CCCO1` [Compound 135], the EC50 came to 255 nM in assay [1] (setting [5]), 3790 nM in assay [2] (setting [6]), 106 nM in assay [3] (setting [7]) and 3130 nM in assay [4] (setting [8]).

In the case of `CC(C)OC(=O)Nc1cnc2nc(-c3cc(NC(=O)N4CC(F)C4)ccc3F)cn2c1` [Compound 287], the EC50 in assay [1] (setting [5]) came to 120 nM; in assay [2] (setting [6]) it was 1430 nM; in assay [3] (setting [7]), 77 nM; in assay [4] (setting [8]), 402 nM.

As for `O=C(Nc1ccc(F)c(-c2cn3cc(NC4CCOCC4)cnc3n2)c1)N1CCCC1` [Compound 475], the concentration for a half-maximal effect (EC50) is 1310 nM in assay [1] (setting [9]), 9160 nM in assay [2] (setting [10]), 217 nM in assay [3] (Trypanosoma brucei) and 5980 nM in assay [4] (setting [11]).

Take `CC(C)c1cnc2nc(-c3cc(NC(=O)N4CC(F)(F)C4)ccc3F)cn2c1` [Compound 416]: the concentration for a half-maximal effect (EC50) in assay [1] (setting [9]) is 30 nM; in assay [2] (setting [10]) it was 47 nM; in assay [3] (Trypanosoma brucei) it was 41 nM; in assay [4] (setting [11]), 93 nM.

For the compound `O=C(Nc1ccc(F)c(-c2cn3cc(-c4ccccc4)cnc3n2)c1)N1CC[C@@H](F)C1` [Compound 409], the EC50 in assay [1] (setting [9]) stood at 19 nM; in assay [2] (setting [10]), 5 nM; in assay [3] (Trypanosoma brucei), 4 nM; in assay [4] (setting [11]) it was 61 nM.

For `Cc1nc(C)c(C(=O)Nc2ccc(F)c(-c3cn4cc(C5CCC5)cnc4n3)c2)o1` [Compound 210], the EC50 in assay [1] (setting [5]) turned out to be 47 nM; in assay [2] (setting [6]), 31 nM; in assay [3] (setting [7]), 34 nM; in assay [4] (setting [8]), 85 nM.

In the case of `Cc1nc(C)c(C(=O)Nc2ccc(F)c(-c3cn4cc(NC(=O)C5(C)COC5)cnc4n3)c2)o1` [Compound 192], the EC50 was 3240 nM in assay [1] (setting [5]), over 20000 nM in assay [2] (setting [6]), 1140 nM in assay [3] (setting [7]) and over 25100 nM in assay [4] (setting [8]).

Take `Cc1nc(C)c(C(=O)Nc2ccc(F)c(-c3cn4cc(NC(=O)C5CC5)cnc4n3)c2)o1` [Compound 248]: the EC50 was 191 nM in assay [1] (setting [5]), over 20000 nM in assay [2] (setting [6]), 169 nM in assay [3] (setting [7]) and 411 nM in assay [4] (setting [8]).

Take `Cc1nc(C)c(C(=O)Nc2ccc(F)c(-c3cn4cc(NC(=O)C5CCCCO5)cnc4n3)c2)o1` (single isomer, unassigned) [Compound 185]: the EC50 in assay [1] (axenic amastigotes, inhibition of proliferation) came out at 462 nM; in assay [2] (inhibition of proliferation), 1070 nM; in assay [3] (inhibition of proliferation), 954 nM; in assay [4] (inhibition of proliferation), 1140 nM.

Consider `Cc1nc(C)c(C(=O)Nc2ccc(F)c(-c3cn4cc(NC(=O)c5ccc(CN(C)C)cc5)cnc4n3)c2)o1` [Compound 189], for which the EC50 in assay [1] (setting [5]) worked out at 9070 nM; in assay [2] (setting [6]), 10700 nM; in assay [3] (setting [7]) it was 4270 nM; in assay [4] (setting [8]), 15500 nM.

`O=C(Nc1ccc(Cl)c(-c2cn3cc(C4=CCNCC4)cnc3n2)c1)N1CCCC1` [Compound 570, N-(4-chloro-3-(6-(1,2,3,6-tetrahydropyridin-4-yl)imidazo[1,2-a]pyrimidin-2-yl)phenyl)pyrrolidine-1-carboxamide]: the EC50 in assay [1] (setting [9]) amounted to 1820 nM; in assay [2] (setting [10]), 1990 nM; in assay [3] (Trypanosoma brucei) it was 248 nM; in assay [4] (setting [11]), 13600 nM.

`CC(C)OC(=O)Nc1cnc2nc(-c3cc(NC(=O)c4cocn4)ccc3Cl)cn2c1` [Compound 43]: the half-maximal effective concentration (EC50) was 782 nM in assay [1] (setting [5]), 409 nM in assay [2] (setting [6]), 474 nM in assay [3] (setting [7]) and 3910 nM in assay [4] (setting [8]).

Turning to `Cc1nc(C)c(C(=O)Nc2ccc(F)c(-c3cn4cc(-c5ccc(N6CCN(C(C)C)CC6)cc5)cnc4n3)c2)o1` [Compound 382], the EC50 worked out at 3880 nM in assay [1] (setting [9]), 1390 nM in assay [2] (setting [10]), 2600 nM in assay [3] (Trypanosoma brucei) and 10700 nM in assay [4] (setting [11]).

Take `Cc1nc(C)c(C(=O)Nc2ccc(F)c(-c3cn4cc(N(C)C(C)C)cnc4n3)c2)o1` [Compound 483]: the EC50 turned out to be 169 nM in assay [1] (setting [9]), 74 nM in assay [2] (setting [10]), 70 nM in assay [3] (Trypanosoma brucei) and 196 nM in assay [4] (setting [11]).

Regarding `CCN(C)C(=O)Nc1ccc(F)c(-c2cn3cc(-c4ccccn4)cnc3n2)c1` [Compound 381], the EC50 is 392 nM in assay [1] (setting [9]), 445 nM in assay [2] (setting [10]), 482 nM in assay [3] (Trypanosoma brucei) and 1440 nM in assay [4] (setting [11]).

Consider `O=C(Nc1ccc(F)c(-c2cn3cc(-c4ccccc4)cnc3n2)c1)N1CC(F)C1` [Compound 317, 3-fluoro-N-(4-fluoro-3-(6-phenylimidazo[1,2-a]pyrimidin-2-yl)phenyl)azetidine-1-carboxamide], for which the 50% effective concentration (EC50) amounted to 14 nM in assay [1] (setting [5]), 12 nM in assay [2] (setting [6]), 12 nM in assay [3] (setting [7]) and 38 nM in assay [4] (setting [8]).

With `Cc1nc(C)c(C(=O)Nc2ccc(F)c(-c3cn4cc(C#CCCN5CCOCC5)cnc4n3)c2)o1` [Compound 544, N-(4-fluoro-3-(6-(4-morpholinobut-1-yn-1-yl)imidazo[1,2-a]pyrimidin-2-yl)phenyl)-2,4-dimethyloxazole-5-carboxamide], the EC50 is 4040 nM in assay [1] (setting [9]), 4010 nM in assay [2] (setting [10]), over 50000 nM in assay [3] (Trypanosoma brucei) and 19300 nM in assay [4] (setting [11]).

As to `Cc1nc(C)c(C(=O)Nc2ccc(F)c(-c3cn4cc(NS(=O)(=O)C(C)C)cnc4n3)c2)o1` [Compound 315, N-(4-fluoro-3-(6-(1-methylethylsulfonamido)imidazo[1,2-a]pyrimidin-2-yl)phenyl)-2,4-dimethyloxazole-5-carboxamide], the EC50 in assay [1] (setting [5]) was 2520 nM; in assay [2] (setting [6]), over 19800 nM; in assay [3] (setting [7]), 4410 nM; in assay [4] (setting [8]) it was 19100 nM.

As for `Cc1nc(C)c(C(=O)Nc2cccc(-c3cn4cc(C5=CCOCC5)cnc4n3)c2)o1` [Compound 335], the EC50 in assay [1] (setting [5]) turned out to be 178 nM; in assay [2] (setting [6]), 407 nM; in assay [3] (setting [7]), 114 nM; in assay [4] (setting [8]), 521 nM.

Regarding `CC(C)OC(=O)Nc1cnc2nc(-c3cc(NC(=O)c4ccc(Br)o4)ccc3F)cn2c1` [Compound 70], the EC50 in assay [1] (setting [5]) turned out to be 136 nM; in assay [2] (setting [6]), 72 nM; in assay [3] (setting [7]), 54 nM; in assay [4] (setting [8]), 190 nM.
